Assay results published in patent US8557855B2, “Methods of using ryanodine antagonists in treating neural injury” (Allergan, Inc., priority 2002, dated 2013).

Experiments:
[1] = test system: retinal ganglion cells; assay: NMDA-induced injury of retinal ganglion cells in vivo in rabbits (cell count at RGC layer); settings: rabbit
From the text: (§1) To evaluate in vivo neuroprotective effects of dantrolene (DTL) on NMDA-induced injury of RGCs an imaging method to count cell numbers at the RGC layer in the isolated retinas was developed. Briefly, two weeks following intravitreal injection of vehicle or various test agents, a rabbit was euthanized and the treated eye was enucleated. A piece of retina (8 mm in diameter) was cut immediately below the optic nerve head, flat-mounted in a plastic chamber filled with HEPES-buffered Ames medium, and imaged at 25 fields in a 5×5 array with a 40× water immersion objective using an Olympus microscope (BX50WI) equipped with an epi-fluorescence unit. The images were taken with a Hamamatsu C4742-95 digital camera and Image-Pro Plus software (V4.5). The total number of neurons at the ganglion cell layer in these 25 fields was counted. The same measurements were conducted in one control group (rabbits treated with vehicle) and 4 test groups treated with 1) NMDA, 2) dantrolene+NMDA, 3) veratridine (Verat) a neurotoxin that damages retinal ganglion cells with intracellular sodium overload, and 4) dantrolene+veratridine. The results from the 4 test groups are normalized with respect to that of control.

[2] = test system: retinal ganglion cells; assay type: in vivo; settings: rabbit, intravitreal injection, two weeks after injection, normalized to vehicle control
From the text: as §1

[3] = test system: retinal ganglion cells; settings: cited from earlier work

## CN[C@H](CC(=O)O)C(=O)O [NMDA]
[1]; intravitreal injection, two weeks after injection, normalized to vehicle control
  loss of cells at the RGC layer caused by NMDA alone: 53%

## O=C1CN(N=Cc2ccc(-c3ccc([N+](=O)[O-])cc3)o2)C(=O)N1 [dantrolene, 1-[[5-(p-Nitrophenyl)furfurylidene]amino]hydantoin]
[1]; intravitreal injection of NMDA
  neuroprotective effect on NMDA-induced damage to ganglion cells (FIG. 1): ameliorated NMDA-induced damage to ganglion cells
[1]; intravitreal injection, two weeks after injection, normalized to vehicle control, NMDA alone 53%
  NMDA-induced cell death at the RGC layer after pretreatment with dantrolene: 35%
[2]; veratridine alone 56%
  cell loss caused by veratridine with dantrolene: 50%

## CC12CC3CC(C)(C1)CC(N)(C3)C2 [memantine]
[3]
  effect on RGC loss in glaucomatous monkeys: ameliorates RGC loss

## COc1ccc(C(=O)O[C@H]2CC[C@@]3(C)[C@@H]4CC[C@H]5[C@]6(O)C[C@H](O)[C@@]7(O)[C@@H](CN8C[C@@H](C)CC[C@H]8[C@@]7(C)O)[C@]6(O)C[C@@]53O[C@]24O)cc1OC [veratridine]
[2]
  cell loss at the RGC layer caused by veratridine alone: 56%
